Patent publication US12534469B2 (CHILDREN'S HOSPITAL MEDICAL CENTER, priority 2020, dated 2026)
Substitutions are numbered along the chain they refer to. Like-named read-outs stand apart in the source and are kept apart here.

Columns and labels:
[1] = molecular target: T1, FLT3 (Homo sapiens, UniProt P36888); test: DiscoverX KINOMEscan competition binding assay, FLT3
T1 construct: using full-length kinases in the presence of cellular concentrations of ATP in live, uncompromised cells; assay by Reaction Biology; host or cells: HEK-293 (ATCC), transient transfection
T1 sequence (P36888 27-993): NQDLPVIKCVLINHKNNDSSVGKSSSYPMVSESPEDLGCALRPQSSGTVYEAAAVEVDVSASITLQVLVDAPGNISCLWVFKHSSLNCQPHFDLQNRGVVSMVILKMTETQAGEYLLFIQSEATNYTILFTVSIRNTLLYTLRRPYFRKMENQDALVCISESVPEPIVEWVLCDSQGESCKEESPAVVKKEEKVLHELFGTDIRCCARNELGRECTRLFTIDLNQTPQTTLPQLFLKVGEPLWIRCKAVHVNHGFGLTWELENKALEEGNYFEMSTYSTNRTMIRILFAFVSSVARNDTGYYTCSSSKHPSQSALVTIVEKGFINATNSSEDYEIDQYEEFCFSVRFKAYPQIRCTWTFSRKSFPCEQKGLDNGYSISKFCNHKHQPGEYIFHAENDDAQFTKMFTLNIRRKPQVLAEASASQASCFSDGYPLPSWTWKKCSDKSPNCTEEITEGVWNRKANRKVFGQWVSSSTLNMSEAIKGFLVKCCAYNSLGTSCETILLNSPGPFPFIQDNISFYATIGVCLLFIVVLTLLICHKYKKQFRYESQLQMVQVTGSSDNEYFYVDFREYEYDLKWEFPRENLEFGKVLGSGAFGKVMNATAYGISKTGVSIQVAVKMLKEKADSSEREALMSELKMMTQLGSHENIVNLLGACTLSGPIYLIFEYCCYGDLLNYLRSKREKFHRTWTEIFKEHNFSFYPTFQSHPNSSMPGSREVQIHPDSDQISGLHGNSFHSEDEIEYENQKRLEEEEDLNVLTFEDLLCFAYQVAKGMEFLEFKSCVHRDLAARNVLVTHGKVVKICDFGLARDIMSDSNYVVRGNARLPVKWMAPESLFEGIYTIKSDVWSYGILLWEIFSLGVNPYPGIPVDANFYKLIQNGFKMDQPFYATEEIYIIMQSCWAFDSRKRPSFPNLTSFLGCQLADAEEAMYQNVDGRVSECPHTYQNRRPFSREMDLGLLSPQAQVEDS
Text: (§1) Kinase binding data were obtained for various exemplary compounds prepared according to Examples 1-25 using the DiscoverX KINOMEscan® active site-directed competition binding site-directed assay protocol described below. […] As a result, the data report thermodynamic interaction affinities (Kd values), rather than IC50 values that are dependent on ATP concentrations. The assay uses a DNA-tagged version of the protein kinase, and an immobilized ligand bound to a solid support. Compounds that directly or indirectly prevent kinase binding to the immobilized ligand reduce the amount of kinase captured on the solid support, which is detected using an ultra-sensitive qPCR method. Affinity constants reported from the assay have been reported to be independent of the immobilized ligand used that is coupled to the solid support (See supplemental information in Fabian, M. A. et. al., (2005) Nat. Biotechnol. 23, 329-336; Wodicka, L. M. et. al., (2010) Chem. Biol. 17, 1241-1249.)
(§2) Kinase-tagged T7 phage strains were prepared in an E. coli host derived from the BL21 strain. E. coli were grown to log-phase and infected with T7 phage and incubated with shaking at 32° C. until lysis. The lysates were centrifuged and filtered to remove cell debris. The remaining kinases were produced in HEK-293 cells and subsequently tagged with DNA for qPCR detection. […] The liganded beads were blocked with excess biotin and washed with blocking buffer (SeaBlock (Pierce), 1% BSA, 0.05% Tween 20, 1 mM DTT) to remove unbound ligand and to reduce non-specific binding. […] Test compounds were prepared as 111× stocks in 100% DMSO. Kds were determined using an 11-point 3-fold compound dilution series with three DMSO control points. […] The compounds were then diluted directly into the assays such that the final concentration of DMSO was 0.9%. All reactions were performed in polypropylene 384-well plates. Each was a final volume of 0.02 mL. […] The kinase concentration in the eluates was measured by qPCR.
(§3) Binding constants (Kds) were calculated with a standard dose-response curve using the Hill equation. […]

[2] = molecular target: T2, FLT3 ITD, D835V (Homo sapiens, UniProt P36888, D835V/ITD); test: DiscoverX KINOMEscan competition binding assay, FLT3 ITD, D835V
T2 sequence (P36888 564-993 D835V): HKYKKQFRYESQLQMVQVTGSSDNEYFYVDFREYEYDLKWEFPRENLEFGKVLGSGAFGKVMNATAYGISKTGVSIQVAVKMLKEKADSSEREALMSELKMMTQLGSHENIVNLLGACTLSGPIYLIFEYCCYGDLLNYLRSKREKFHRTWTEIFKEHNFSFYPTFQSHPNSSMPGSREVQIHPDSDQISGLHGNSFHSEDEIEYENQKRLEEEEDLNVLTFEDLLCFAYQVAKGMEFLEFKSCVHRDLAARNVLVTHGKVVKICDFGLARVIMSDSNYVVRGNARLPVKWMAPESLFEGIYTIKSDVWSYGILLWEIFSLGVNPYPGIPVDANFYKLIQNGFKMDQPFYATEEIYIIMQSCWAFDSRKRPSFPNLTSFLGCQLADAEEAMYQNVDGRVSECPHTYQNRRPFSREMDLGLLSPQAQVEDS
Text: as §1, §2, §3

[3] = molecular target: T3, FLT3 ITD, F691L (Homo sapiens, UniProt P36888, F691L/ITD); test: DiscoverX KINOMEscan competition binding assay, FLT3 ITD, F691L
T3 sequence (P36888 564-993 F691L): T2 sequence (P36888 564-993 D835V) with F128L, V272D
Text: as §1, §2, §3

Row | Kd [1] [nM] | Kd [2] [nM] | Kd [3] [nM] | Kd ([2]; read-out: FLT3 ITD, D835V Kd) [nM] | Kd ([3]; read-out: FLT3 ITD, F691L Kd) [nM] | Structure (SMILES)
1 | 0.31 | 0.07 | 0.37 |  |  | COc1cc2ncc(-c3cccc(N[C@H]4CNC[C@@H]4F)n3)n2nc1C1CC1 [Compound 96, 6-(6-cyclopropyl-7-methoxyimidazo[1,2-b]pyridazin-3-yl)-N-((3S,4S)-4-fluoropyrrolidin-3-yl)pyridin-2-amine]
2 | 0.19 |  |  | 0.034 | 0.19 | COc1cc2ncc(-c3cccc(N[C@@H]4CCNC4)n3)n2nc1C1CC1 [Compound 97, (R)-6-(6-cyclopropyl-7-methoxyimidazo[1,2-b]pyridazin-3-yl)-N-(pyrrolidin-3-yl)pyridin-2-amine]
3 | 0.13 |  |  | 0.045 | 0.14 | COc1cc2ncc(-c3cccc(N[C@H]4CNCC[C@@H]4F)n3)n2nc1C1CC1 [Compound 102, 6-(6-cyclopropyl-7-methoxyimidazo[1,2-b]pyridazin-3-yl)-N-((3S,4S)-4-fluoropiperidin-3-yl)pyridin-2-amine]
